How the values were obtained:
Experiment in all cases: Kinase inhibitor profiling, pEY phosphorylation
Format in all cases: biochemical
BMX = target: T1, BMX (Homo sapiens, UniProt P51813)
T1 construct: specificity data for proteins generated from a library of eighteen full-length clones; host or cells: rabbit reticulocyte lysate, TnT coupled in vitro transcription/translation (cell-free)
T1 sequence (P51813 1-675): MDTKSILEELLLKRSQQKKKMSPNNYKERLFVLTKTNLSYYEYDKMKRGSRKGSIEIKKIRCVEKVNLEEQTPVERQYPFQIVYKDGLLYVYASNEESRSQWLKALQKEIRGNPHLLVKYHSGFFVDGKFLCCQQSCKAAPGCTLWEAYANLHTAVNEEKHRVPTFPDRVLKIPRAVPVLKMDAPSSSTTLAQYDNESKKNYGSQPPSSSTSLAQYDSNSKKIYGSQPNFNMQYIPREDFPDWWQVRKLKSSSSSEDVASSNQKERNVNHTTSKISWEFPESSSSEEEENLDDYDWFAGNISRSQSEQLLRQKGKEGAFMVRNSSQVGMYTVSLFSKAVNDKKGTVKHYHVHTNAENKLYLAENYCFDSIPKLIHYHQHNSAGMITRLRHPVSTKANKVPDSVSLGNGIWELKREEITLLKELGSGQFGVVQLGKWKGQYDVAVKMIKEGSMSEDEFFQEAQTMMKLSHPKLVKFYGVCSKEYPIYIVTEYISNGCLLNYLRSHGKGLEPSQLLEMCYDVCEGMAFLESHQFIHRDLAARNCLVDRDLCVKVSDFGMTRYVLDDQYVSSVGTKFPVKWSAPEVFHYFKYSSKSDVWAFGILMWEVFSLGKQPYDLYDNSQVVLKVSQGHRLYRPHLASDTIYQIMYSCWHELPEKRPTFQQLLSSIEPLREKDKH

Epha7 = target: T2, Epha7 (Mus musculus, UniProt Q61772)
T2 construct: autophosphorylation activity from full-length clones Spleen Tyrosine Kinase (SYK) and Eph receptor-A7 (EphA7); host or cells: rabbit reticulocyte lysate, TnT coupled in vitro transcription/translation (cell-free)

HCK = target: T3, HCK (Homo sapiens, UniProt P08631)
T3 construct: specificity data for proteins generated from a library of eighteen full-length clones; host or cells: rabbit reticulocyte lysate, TnT coupled in vitro transcription/translation (cell-free)

PTK2B = target: T4, PTK2B (Homo sapiens, UniProt Q14289)
T4 construct: specificity data for proteins generated from a library of eighteen full-length clones; host or cells: rabbit reticulocyte lysate, TnT coupled in vitro transcription/translation (cell-free)

SRC = target: T5, SRC (Mus musculus, UniProt P05480)
T5 construct: specificity data for proteins generated from a library of eighteen full-length clones; host or cells: rabbit reticulocyte lysate, TnT coupled transcription/translation

Tek = target: T6, Tek (Mus musculus, UniProt Q02858)
T6 construct: specificity data for proteins generated from a library of eighteen full-length clones; host or cells: rabbit reticulocyte lysate, TnT coupled in vitro transcription/translation (cell-free)

CSK = target: T7, CSK (Homo sapiens, UniProt P41240)
T7 construct: specificity data for proteins generated from a library of eighteen full-length clones; host or cells: rabbit reticulocyte lysate, TnT coupled in vitro transcription/translation (cell-free)

SYK = target: T8, SYK (Homo sapiens, UniProt P43405)
T8 construct: autophosphorylation activity from full-length clones Spleen Tyrosine Kinase (SYK) and Eph receptor-A7 (EphA7); host or cells: rabbit reticulocyte lysate, TnT coupled in vitro transcription/translation (cell-free)

T4 sequence (Q14289 whole entry): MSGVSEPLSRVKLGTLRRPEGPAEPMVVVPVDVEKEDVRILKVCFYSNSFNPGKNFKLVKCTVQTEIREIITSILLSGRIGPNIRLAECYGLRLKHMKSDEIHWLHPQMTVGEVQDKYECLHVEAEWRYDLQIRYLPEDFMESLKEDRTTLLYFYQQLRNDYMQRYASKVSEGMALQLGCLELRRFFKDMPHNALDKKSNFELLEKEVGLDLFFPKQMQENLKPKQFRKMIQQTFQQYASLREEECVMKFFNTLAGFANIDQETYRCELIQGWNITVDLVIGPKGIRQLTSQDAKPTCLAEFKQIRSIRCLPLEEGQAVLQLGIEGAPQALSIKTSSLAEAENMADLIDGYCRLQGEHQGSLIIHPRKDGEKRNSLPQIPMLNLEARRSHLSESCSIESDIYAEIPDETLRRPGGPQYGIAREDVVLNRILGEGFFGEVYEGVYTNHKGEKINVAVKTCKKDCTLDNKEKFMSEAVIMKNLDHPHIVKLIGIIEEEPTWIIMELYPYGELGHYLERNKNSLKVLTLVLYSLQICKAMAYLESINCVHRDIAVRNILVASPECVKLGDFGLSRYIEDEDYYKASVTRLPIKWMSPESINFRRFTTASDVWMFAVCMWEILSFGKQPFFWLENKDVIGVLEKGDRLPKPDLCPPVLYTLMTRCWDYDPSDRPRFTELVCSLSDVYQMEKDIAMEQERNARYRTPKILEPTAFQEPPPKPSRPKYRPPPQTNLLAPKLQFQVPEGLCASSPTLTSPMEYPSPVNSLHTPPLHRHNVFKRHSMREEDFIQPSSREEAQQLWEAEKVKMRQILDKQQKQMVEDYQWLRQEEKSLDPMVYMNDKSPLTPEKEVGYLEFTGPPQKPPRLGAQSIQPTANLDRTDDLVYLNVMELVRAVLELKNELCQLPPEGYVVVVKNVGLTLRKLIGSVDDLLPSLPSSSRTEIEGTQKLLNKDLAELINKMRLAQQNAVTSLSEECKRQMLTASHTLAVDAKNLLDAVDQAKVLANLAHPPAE
T5 sequence (P05480 whole entry): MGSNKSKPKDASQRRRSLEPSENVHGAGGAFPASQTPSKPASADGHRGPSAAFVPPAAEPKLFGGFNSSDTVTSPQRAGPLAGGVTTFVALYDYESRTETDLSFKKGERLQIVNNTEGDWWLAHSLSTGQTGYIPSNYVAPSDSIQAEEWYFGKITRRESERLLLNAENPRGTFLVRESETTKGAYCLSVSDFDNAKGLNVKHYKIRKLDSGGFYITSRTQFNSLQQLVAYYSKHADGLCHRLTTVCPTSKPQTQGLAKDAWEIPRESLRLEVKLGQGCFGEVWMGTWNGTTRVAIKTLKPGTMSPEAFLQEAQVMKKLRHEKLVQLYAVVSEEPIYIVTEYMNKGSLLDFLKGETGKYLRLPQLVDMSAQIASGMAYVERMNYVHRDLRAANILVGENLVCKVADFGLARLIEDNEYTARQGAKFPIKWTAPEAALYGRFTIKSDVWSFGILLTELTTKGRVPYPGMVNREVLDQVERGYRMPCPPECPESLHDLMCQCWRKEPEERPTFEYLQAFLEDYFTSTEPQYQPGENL
T2 sequence (Q61772 28-998): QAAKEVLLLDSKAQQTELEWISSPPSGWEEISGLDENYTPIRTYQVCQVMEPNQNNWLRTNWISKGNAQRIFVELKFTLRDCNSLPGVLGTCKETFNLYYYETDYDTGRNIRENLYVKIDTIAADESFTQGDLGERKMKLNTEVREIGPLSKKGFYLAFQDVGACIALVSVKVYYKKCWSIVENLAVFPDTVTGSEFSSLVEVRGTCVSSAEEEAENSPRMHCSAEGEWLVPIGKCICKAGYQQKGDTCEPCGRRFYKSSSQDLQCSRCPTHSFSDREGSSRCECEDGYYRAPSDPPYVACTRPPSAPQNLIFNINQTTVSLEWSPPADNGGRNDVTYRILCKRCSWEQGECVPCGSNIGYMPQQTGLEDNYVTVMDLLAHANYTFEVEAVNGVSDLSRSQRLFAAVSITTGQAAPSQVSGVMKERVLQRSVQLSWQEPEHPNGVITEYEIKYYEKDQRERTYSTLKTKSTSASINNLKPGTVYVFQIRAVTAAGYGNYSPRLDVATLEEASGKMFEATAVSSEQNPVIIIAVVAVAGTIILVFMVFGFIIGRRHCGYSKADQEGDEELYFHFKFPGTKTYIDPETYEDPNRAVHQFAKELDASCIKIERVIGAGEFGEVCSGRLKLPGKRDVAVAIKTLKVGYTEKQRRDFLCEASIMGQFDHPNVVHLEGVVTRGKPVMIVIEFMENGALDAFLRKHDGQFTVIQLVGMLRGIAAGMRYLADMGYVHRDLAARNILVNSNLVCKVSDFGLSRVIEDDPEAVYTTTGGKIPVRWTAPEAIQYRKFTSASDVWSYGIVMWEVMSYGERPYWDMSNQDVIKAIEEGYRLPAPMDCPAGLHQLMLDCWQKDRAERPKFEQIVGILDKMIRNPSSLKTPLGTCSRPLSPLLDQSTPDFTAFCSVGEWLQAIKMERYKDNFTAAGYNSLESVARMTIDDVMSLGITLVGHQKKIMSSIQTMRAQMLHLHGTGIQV
T6 sequence (Q02858 23-1122): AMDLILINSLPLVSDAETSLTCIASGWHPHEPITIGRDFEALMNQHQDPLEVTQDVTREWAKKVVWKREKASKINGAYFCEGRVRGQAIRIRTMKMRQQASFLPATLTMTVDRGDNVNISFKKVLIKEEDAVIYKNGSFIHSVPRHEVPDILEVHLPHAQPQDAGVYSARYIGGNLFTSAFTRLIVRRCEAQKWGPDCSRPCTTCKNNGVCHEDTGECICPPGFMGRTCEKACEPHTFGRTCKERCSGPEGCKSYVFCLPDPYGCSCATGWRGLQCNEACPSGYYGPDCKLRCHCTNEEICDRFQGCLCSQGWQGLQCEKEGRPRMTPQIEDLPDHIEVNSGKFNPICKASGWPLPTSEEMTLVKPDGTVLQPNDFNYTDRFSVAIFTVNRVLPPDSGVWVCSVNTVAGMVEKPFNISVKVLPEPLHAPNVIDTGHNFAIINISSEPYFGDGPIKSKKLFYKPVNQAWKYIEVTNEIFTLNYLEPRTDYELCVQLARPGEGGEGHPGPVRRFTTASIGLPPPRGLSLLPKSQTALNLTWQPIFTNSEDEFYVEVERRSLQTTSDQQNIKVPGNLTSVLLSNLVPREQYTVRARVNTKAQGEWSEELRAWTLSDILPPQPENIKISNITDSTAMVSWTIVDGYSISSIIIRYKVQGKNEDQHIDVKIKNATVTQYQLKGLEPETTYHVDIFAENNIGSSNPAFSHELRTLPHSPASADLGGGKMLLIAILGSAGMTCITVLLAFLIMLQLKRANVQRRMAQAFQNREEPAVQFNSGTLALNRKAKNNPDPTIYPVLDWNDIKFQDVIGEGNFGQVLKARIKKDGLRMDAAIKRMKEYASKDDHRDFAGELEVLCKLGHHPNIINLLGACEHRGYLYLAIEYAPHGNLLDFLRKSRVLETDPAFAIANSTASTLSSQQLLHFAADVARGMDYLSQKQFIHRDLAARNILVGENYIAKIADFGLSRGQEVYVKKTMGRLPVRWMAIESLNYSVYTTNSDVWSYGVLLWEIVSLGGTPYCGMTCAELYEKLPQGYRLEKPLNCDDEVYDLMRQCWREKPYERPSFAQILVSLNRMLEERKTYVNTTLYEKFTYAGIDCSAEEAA
T3 sequence (P08631 whole entry): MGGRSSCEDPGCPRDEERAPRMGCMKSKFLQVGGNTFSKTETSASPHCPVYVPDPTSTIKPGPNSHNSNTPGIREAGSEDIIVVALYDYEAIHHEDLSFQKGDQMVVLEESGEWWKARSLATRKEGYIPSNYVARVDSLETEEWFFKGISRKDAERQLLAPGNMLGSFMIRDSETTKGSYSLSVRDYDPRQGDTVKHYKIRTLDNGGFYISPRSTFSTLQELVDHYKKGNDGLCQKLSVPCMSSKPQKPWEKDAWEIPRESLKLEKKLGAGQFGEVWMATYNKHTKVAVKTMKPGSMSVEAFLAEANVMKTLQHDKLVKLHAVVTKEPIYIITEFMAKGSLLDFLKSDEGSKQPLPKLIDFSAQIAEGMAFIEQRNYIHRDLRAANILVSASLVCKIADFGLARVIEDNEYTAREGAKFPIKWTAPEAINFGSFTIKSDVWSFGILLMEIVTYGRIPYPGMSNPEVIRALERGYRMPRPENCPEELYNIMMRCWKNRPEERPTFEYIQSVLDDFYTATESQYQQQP
T7 sequence (P41240 whole entry): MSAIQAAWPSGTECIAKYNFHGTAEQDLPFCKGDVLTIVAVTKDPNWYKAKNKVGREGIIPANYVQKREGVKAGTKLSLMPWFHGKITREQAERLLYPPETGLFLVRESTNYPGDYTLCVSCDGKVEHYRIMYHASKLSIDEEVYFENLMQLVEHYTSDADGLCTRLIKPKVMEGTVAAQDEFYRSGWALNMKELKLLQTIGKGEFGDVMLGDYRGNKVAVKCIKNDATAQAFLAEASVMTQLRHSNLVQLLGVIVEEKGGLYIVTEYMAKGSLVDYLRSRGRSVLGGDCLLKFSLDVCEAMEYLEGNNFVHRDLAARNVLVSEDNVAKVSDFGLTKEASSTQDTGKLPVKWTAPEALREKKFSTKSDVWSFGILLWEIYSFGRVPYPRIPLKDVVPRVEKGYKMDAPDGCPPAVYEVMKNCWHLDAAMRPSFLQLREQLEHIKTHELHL

| Compound | Inhibition specificity towards pEY phosphorylation at 10X IC50, BMX (BMX) | Inhibition specificity towards pEY phosphorylation at 10X IC50, Epha7 (Epha7) | Inhibition specificity towards pEY phosphorylation at 10X IC50, HCK (HCK) | Inhibition specificity towards pEY phosphorylation at 10X IC50, PTK2B (PTK2B) | Inhibition specificity towards pEY phosphorylation at 10X IC50, Src (SRC) | Inhibition specificity towards pEY phosphorylation at 10X IC50, Tek (Tek) | Inhibition specificity towards pEY phosphorylation at 10X IC50, CSK (CSK) | Inhibition specificity towards pEY phosphorylation at 10X IC50, SYK (SYK) |
| --- | --- | --- | --- | --- | --- | --- | --- | --- |
| COc1cc2ncnc(Nc3ccc(O)cc3)c2cc1OC [WHI-P131] | L (low inhibition (“L”=between 50–75% of the activity remaining)) | L (low inhibition (“L”=between 50–75% of the activity remaining)) | L (low inhibition (“L”=between 50–75% of the activity remaining)) | L (low inhibition (“L”=between 50–75% of the activity remaining)) | L (low inhibition (“L”=between 50–75% of the activity remaining)) | L (low inhibition (“L”=between 50–75% of the activity remaining)) |  |  |
| Cc1ccc(-c2nn(C(C)(C)C)c3ncnc(N)c23)cc1 [PP1] | L (low inhibition (“L”=between 50–75% of the activity remaining)) |  |  |  |  |  |  |  |
| Cc1cc2ncc(-c3ccc(O)c(O)c3)nc2cc1C [AG-1433] | H (high inhibition (“H”=less than 25% of the activity remaining)) | L (low inhibition (“L”=between 50–75% of the activity remaining)) | M (medium inhibition (“M”=between 25 to 50% of the activity remaining)) | L (low inhibition (“L”=between 50–75% of the activity remaining)) | H (high inhibition (“H”=less than 25% of the activity remaining)) | M (medium inhibition (“M”=between 25 to 50% of the activity remaining)) | M (medium inhibition (“M”=between 25 to 50% of the activity remaining)) | M (medium inhibition (“M”=between 25 to 50% of the activity remaining)) |
| COc1c(C=O)c(O)cc2c1C(=O)c1ccccc1C2=O [Damnacanthal] | H (high inhibition (“H”=less than 25% of the activity remaining)) | H (high inhibition (“H”=less than 25% of the activity remaining)) | H (high inhibition (“H”=less than 25% of the activity remaining)) | H (high inhibition (“H”=less than 25% of the activity remaining)) | H (high inhibition (“H”=less than 25% of the activity remaining)) | M (medium inhibition (“M”=between 25 to 50% of the activity remaining)) | H (high inhibition (“H”=less than 25% of the activity remaining)) | H (high inhibition (“H”=less than 25% of the activity remaining)) |
| COC(=O)c1ccc(NCc2cc(O)ccc2O)cc1 [AG-957] | L (low inhibition (“L”=between 50–75% of the activity remaining)) |  |  |  |  | L (low inhibition (“L”=between 50–75% of the activity remaining)) | M (medium inhibition (“M”=between 25 to 50% of the activity remaining)) |  |
| CC(C)(C)c1cc(C=C(C#N)C#N)cc(Br)c1O [AG-1024] |  |  |  |  |  | L (low inhibition (“L”=between 50–75% of the activity remaining)) |  | L (low inhibition (“L”=between 50–75% of the activity remaining)) |

Reference: patent US7063946B2, “Methods, reagents, kits and apparatus for protein function analysis” (Meso Scale Technologies, LLC., priority 2001, dated 2006)
